Broadly, the IC50 is the point on the concentration scale where inhibition reaches its midpoint.

For the assay, the system named is L-type Ca2+ channels in GH3 cells. Briefly: Inhibition of L-type calcium flux in GH3 cells (Indo-1 fluorescence). The assay is classed as cell-based, rat. Here is the method: Measurement of L-type Ca^2+ Channel Blocking Potencies of Compounds in GH3 Cells Using the Fluorescent Ca^2+ Indicator Indo-1
The GH3 rat pituitary cell line was obtained from the American Type Culture Collection (Rockville, Md.). Cells were grown in Ham's F-10 medium with 15% horse serum, 2.5% fetal bovine serum (FBS), and […] (Gibco, Gaithersburg, Md.). Confluent cells were detached using 0.5 mM EDTA and loaded with 5 μM Indo-acetoxymethyl ester (Molecular Probes, Eugene, Oreg.) in 1% bovine serum albumin (BSA) containing assay buffer (10 mM HEPES/Tris pH 7.4 in Hank's Balanced Salt Solution without bicarbonate or phenol red) for 60 minutes at 30° C. Loaded cells were washed twice, resuspended (approx. 10^7 cells/mL) in assay buffer containing 0.5% BSA, and kept on ice until use (<3 hrs). Different concentrations of the test compounds (60 μL in dimethyl sulfoxide) or controls were added to 5.94 mL of assay buffer containing approximately 3×10^6 loaded cells, and the samples were incubated for 10 minutes at 30° C. After incubation, samples were aliquoted into 3 cuvettes, and their fluorescence was measured with a Photon Technology International (PTI, South Brunswick, N.J.) Model RF-F3004 spectrofluorometer thermostatted at 30° C. Excitation was set at 350 nm and dual emissions were recorded at 400 and 490 nm. Basal emission signals were acquired for 20 seconds, followed by the depolarization of cells by the addition of 200 μL of a stimulation solution (1 M KCl, 68 mM CaCl2) to the stirred cuvette. Emission signals were acquired for an additional 50 seconds after depolarization. Ratio of emission signals (F400 nm/F490 nm), which is proportional to intracellular Ca^2+ concentration, was plotted against time, and the difference between the emission ratio 50 seconds after stimulation and its basal value (before stimulation) was determined. Values obtained in this way were considered as measures of depolarization-induced Ca-flux through L-type channels and plotted as a function of drug concentration. IC50 values of test compounds were calculated by fitting a four-parameter logistic function to the data using the least squares method.
A general note: Calcium assays in cells follow changes in intracellular calcium, usually with a dye or a luminescent sensor.

Consider `CC(C)C[C@H](NC(=O)N1CCCCCC1)C(=O)N[C@@H](Cc1ccc(OCc2ccccc2)cc1)C(=O)OC(C)(C)C` [Example 1], for which the IC50 stood at 4.48 µM.
Consider `CC(C)(C)OC(=O)[C@H](Cc1ccc(OCc2ccccc2)cc1)NC(=O)[C@H](Cc1ccccc1)NC(=O)N1CCCCCC1` [Example 16], for which the concentration for half-maximal inhibition (IC50) came out at 4.3 µM.

The values are drawn from US6423689B1, “Peptidyl calcium channel blockers” (Warner-Lambert Company, priority 1997, dated 2002).
